Values joined by “and” are separate entries in the source; they are usually repeats but may differ in a detail not shown here. Equal entries are not always repeated.
Columns and labels:
[1] = biological target: T1, α-Synuclein (αS) aggregation (Homo sapiens, UniProt P37840); test: Thioflavin T (ThT) dye-based αS aggregation assay (de novo); format: biochemical
T1 construct: made in house; host or cells: E. coli BL21(DE3)
How it was run: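 100 μM αS incubated ±ligand at equimolar ratio, 37 °C with shaking at 1300 rpm; aliquots diluted into PBS containing 50 μM ThT. Fluorescence read at λex 450/λem 490 nm over time, single-point value taken at 96 h; mean of triplicates.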

[2] = biological target: T2, αS fibers (PMCA) (Homo sapiens, UniProt P37840); test: Protein misfolding cyclic amplification assay (PMCA), ThT readout; format: biochemical
T2 construct: made in house; host or cells: E. coli BL21(DE3)
Procedure: The PMCA assay was performed according to a previously described protocol. Briefly, an αS solution (100 µM) was prepared in PBS and 60 µL of the solution was placed in a 200 µL Polymerase Chain Reaction (PCR) tube and the mixture was subjected to five 24 h cycles of 1 min shaking (1200 rpm) and 29 min incubation at 37 °C. Every 24 h, 1 µL of αS solution was passaged to seed 60 µL of fresh soluble monomeric αS solution. The seeding cycle was repeated for five days, after which the ThT signal was measured for all five passages. For the preparation of PMCA samples of αS in the presence of NS132, a molar ratio of 1:1 (αS:NS132) was maintained. All experiments were performed in triplicate. The reported ThT intensity values are the average of three separate experiments with the error bars representing the standard deviations.

[3] = tested on: UA196 worms; test: Confocal counting of healthy DA neurons, post-disease onset PD model of UA196 worms (treatment on day five); format: in vivo, C. elegans
Procedure: The UA196 worms were bleached, and the eggs were incubated on PLATE 1. On day two, the UA196 worms were transferred (using M9 buffer) on PLATE 2 (without ligand). On day five, 10 UA196 worms were used to determine the number of healthy DA worms using confocal imaging (as described earlier) prior to the treatment with ligands on day five. In tandem, ~50 worms were transferred to PLATE 3 (with ligand) using M9 buffer (10-20 µL) and the plate was incubated at 20 °C in the incubator. On days 10 and 15, 10 UA196 worms from PLATE 2 (without ligand) and PLATE 3 (with ligand) were used to determine the number of healthy DA worms using confocal imaging (as described earlier). For each condition, six biological replicates were performed and at least 10 technical replicates were used for each biological replicate. […] (n = 6 independent experiments and each n consisted of a minimum of ten technical replicates).

[4] = biological target: T3, αS fibers (Homo sapiens, UniProt P37840); test: Transmission electron microscopy (TEM) of αS solutions; format: biochemical
T3 construct: made in house; host or cells: E. coli BL21(DE3)
Procedure: Transmission Electron Microscopy was used to visualize protein assemblies after aggregation experiments as previously described. Briefly, aliquots (5 μL) of αS solutions (with or without ligands) were applied on glow-discharged carbon-coated 300-mesh copper grids for 2 min and dried using Kimwipes (Kimberly-Clark, Irving, TX). The copper grids were negatively stained for 1 min with uranyl acetate (0.75%, w/v). The micrographs were taken on an FEI Tecnai G2 Biotwin TEM at 80 kV accelerating voltages.

[5] = UA196 worms+NS132, Day 10, per trial (10 worms)
[6] = UA196 worms+NS132, Day 15, per trial (10 worms)

SMILES: Cc1ccc(NC(=O)c2ccc(NC(=O)c3ccc([N+](=O)[O-])c(NCCc4c[nH]c5ccccc45)n3)c(NCC3CCCCC3)n2)c(OCC(=O)O)n1 [NS132]
- ThT fluorescence intensity, Average ([1]; 100 µM αS + equimolar ligand, aggregation profile Fig. 2n/5c, time 0 hr): 108
- ThT fluorescence intensity, Average ([1]; 100 µM αS + equimolar ligand, comparison with reported ligands Fig. 5f, time 0 hr): 49.3333
- effect on αS aggregation (ThT assay), in words ([1]; 100 µM αS, equimolar, four days): completely suppressed
- ThT intensity relative to Synuclein alone (=1), Average ([1]; 100 µM αS, four days, equimolar): 0.008333
- ThT intensity relative to Synuclein alone (=1), Trial 1-3 ([1]; 100 µM αS, four days, equimolar, individual trials): 0.009745 and 0.008898 and 0.006356
- ThT fluorescence intensity, Average ([1]; Fig. 2n/5c profile, time 6 hr): 108
- ThT fluorescence intensity, Average ([1]; Fig. 2n/5c profile, time 12 hr): 44.6667
- ThT fluorescence intensity, Average ([1]; Fig. 2n/5c profile, time 24 hr): 48.6667
- ThT fluorescence intensity, Average ([1]; Fig. 2n/5c profile, time 35 hr): 41
- ThT fluorescence intensity, Average ([1]; Fig. 2n/5c profile, time 48 hr): 76.6667
- ThT fluorescence intensity, Average ([1]; Fig. 2n/5c profile, time 58 hr): 49
- ThT fluorescence intensity, Average ([1]; Fig. 2n/5c profile, time 77 hr): 35
- ThT fluorescence intensity, Average ([1]; Fig. 2n/5c profile, time 105 hr): 35.3333
- ThT fluorescence intensity, Average ([1]; Fig. 5f profile, time 6 hr): 35.6667
- ThT fluorescence intensity, Average ([1]; Fig. 5f profile, time 12 hr): 44.3333
- ThT fluorescence intensity, Average ([1]; Fig. 5f profile, time 24 hr): 46
- ThT fluorescence intensity, Average ([1]; Fig. 5f profile, time 36 hr): 47.6667
- ThT fluorescence intensity, Average ([1]; Fig. 5f profile, time 48 hr): 43.6667
- ThT fluorescence intensity, Average ([1]; Fig. 5f profile, time 72 hr): 43.6667
- ThT fluorescence intensity, Average ([1]; Fig. 5f profile, time 96 hr): 44.6667
- Relative ThT intensity of αS aggregation, Average ([1]; sheet S7A, Synuclein alone about 1): 0.008333
- Relative ThT intensity of αS aggregation ([1]; sheet S7A, Synuclein alone about 1, individual trials): 0.009745 and 0.008898 and 0.006356
- Relative ThT intensity of αS aggregation, Average ([1]; sheet S8B, Synuclein alone = 1): 0.04997
- Relative ThT intensity of αS aggregation ([1]; sheet S8B, Synuclein alone about 1, individual trials): 0.0476 and 0.0492 and 0.0531
- ThT intensity of Synuclein with ligand, Average ([1]; sheet S17, average of 3 trials, Synuclein alone 206, ThT control 37): 50.3667
- ThT intensity of Synuclein with ligand, Trial 1-3 ([1]; sheet S17, individual trials, Synuclein alone average 206, ThT control average 37): 48.4 and 53.2 and 49.5
- inhibition of αS aggregation, in words ([1]; substoichiometric ratio αS:NS132 1:0.2): wholly inhibit
- ThT intensity (raw), individual trials ([1]; αS aggregation after four days, NS132 derivatives equimolar (Fig. 2r)): 1344 and 1402 and 1510
- ThT intensity of PMCA sample, individual trials ([2]; Cycle 1, αS:NS132 1:1, before PK treatment): 58 and 56 and 50
- ThT intensity of PMCA sample, individual trials ([2]; Cycle 2, αS:NS132 1:1): 63 and 49 and 51
- ThT intensity of PMCA sample, individual trials ([2]; Cycle 3, αS:NS132 1:1): 57 and 62 and 53
- ThT intensity of PMCA sample, individual trials ([2]; Cycle 4, αS:NS132 1:1): 60 and 48 and 64
- ThT intensity of PMCA sample, individual trials ([2]; Cycle 5, αS:NS132 1:1): 86 and 68 and 66
- change in ThT intensity of PMCA samples, in words ([2]; equimolar ratio, up to cycle five): did not observe any significant change
- number of intact healthy DA neurons (max. 60) ([3]; 50 μM ligand on day five, day 15 (untreated 13.8 / 12.8)): 32
- healthy DA neurons, Average ([3]; UA196+ 50 uM NS132, day 5 (same value as UA196 control)): 44.8333
- healthy DA neurons, Average ([3]; UA196+ 50 uM NS132, day 10): 34.8333
- healthy DA neurons, Average ([3]; UA196+ 50 uM NS132, day 15): 32
- healthy DA neurons per trial ([3]; UA196 worms+Ligands, single trials 1-6, day not given): 31 and 33
- Number of worms with 5 neurons [3, 5]: 1 and 2
- Number of worms with 6 neurons [3, 5]: 0
- number of worms with 3 neurons [3, 5]: 4 and 3
- number of worms with 4 neurons [3, 5]: 3 and 4
- Number of worms with 2 neurons [3, 6]: 1 and 2
- Number of worms with 5 neurons [3, 6]: 0
- Number of worms with 6 neurons [3, 6]: 0
- number of worms with 3 neurons [3, 6]: 4 and 3 and 2
- number of worms with 4 neurons [3, 6]: 4 and 5 and 6
- αS fibers seen in TEM images, in words ([4]; 100 µM αS aggregated for four days with ligand): did not observe αS fibers
- αS fibers seen in TEM images, in words ([4]; fibers-catalyzed aggregation of αS, 60 h, equimolar NS132): significantly fewer αS fibers

— publication PMC11061149, “Protein mimetic 2D FAST rescues alpha synuclein aggregation mediated early and post disease Parkinson’s phenotypes” (Nature Communications, 2024)
